These are literature values, as cited in patent EP0890570A2, “Tertiary alkyl primary amines and process for preparing the same” (ROHM AND HAAS COMPANY, priority 1997, dated 1999).

The conditions of this data set: conventional comparison amines, stated without source or method.

`CC(C)CCCCCCN` [iso-nonylamine]: the pKa is recorded as 10. Consider `CCCCCCCCCN` [n-nonylamine], for which the pKa was 10.
